Among the data in ChEMBL document CHEMBL1828564, “Design, synthesis and biological evaluation of novel 1,2,3,4-tetrahydroisoquinoline-3-carboxylic acid derivatives as aminopeptidase N/CD13 inhibitors” (Bioorg Med Chem, 2011) are IC50 and inhibition values, retold here.

Assay [1] addresses 72 kDa type IV collagenase (Homo sapiens, UniProt P08253). As to the kind of experiment: Inhibition of MMP2 after 30 mins.
Assay [2] has as its target T1, Aminopeptidase N (Sus scrofa, UniProt P15145).
T1 sequence (P15145 whole entry): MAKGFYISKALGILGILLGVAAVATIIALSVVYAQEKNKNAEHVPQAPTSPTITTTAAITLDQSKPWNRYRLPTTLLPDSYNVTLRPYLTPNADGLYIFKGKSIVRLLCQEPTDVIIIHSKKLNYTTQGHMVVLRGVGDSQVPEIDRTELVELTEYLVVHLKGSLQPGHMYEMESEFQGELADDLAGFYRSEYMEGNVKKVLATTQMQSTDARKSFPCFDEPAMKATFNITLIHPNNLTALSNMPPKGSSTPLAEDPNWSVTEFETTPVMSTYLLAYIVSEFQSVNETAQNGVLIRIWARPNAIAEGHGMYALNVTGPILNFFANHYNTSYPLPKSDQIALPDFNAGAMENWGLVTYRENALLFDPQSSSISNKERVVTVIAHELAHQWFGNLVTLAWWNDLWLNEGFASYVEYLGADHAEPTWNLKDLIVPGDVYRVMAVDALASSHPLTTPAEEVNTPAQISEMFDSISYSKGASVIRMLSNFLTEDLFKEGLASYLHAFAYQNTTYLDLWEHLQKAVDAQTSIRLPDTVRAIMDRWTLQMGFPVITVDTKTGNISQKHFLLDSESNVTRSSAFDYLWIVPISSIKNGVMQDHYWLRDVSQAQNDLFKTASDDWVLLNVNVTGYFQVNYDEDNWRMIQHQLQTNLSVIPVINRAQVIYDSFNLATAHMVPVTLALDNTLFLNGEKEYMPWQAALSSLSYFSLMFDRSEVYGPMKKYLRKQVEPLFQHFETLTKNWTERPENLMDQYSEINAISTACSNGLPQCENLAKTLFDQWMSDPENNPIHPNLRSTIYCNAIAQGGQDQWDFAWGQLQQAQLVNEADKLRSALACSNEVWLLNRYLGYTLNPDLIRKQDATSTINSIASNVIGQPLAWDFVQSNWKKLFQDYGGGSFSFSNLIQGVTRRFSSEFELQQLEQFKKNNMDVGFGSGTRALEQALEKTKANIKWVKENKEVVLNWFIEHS
Put plainly: Inhibition of pig kidney microsome aminopeptidase N using L-Leu-p-nitroanilide substrate.

Assay [3] is described as follows: cells. Conditions: Homo sapiens, ES-2, 48 h; call rule not given here.
The target of assay [4] is Aminopeptidase N (Homo sapiens, UniProt P15144). Put plainly: Inhibition of aminopeptidase N in human ES2 cells assessed as L-Leu-p-nitroanilide hydrolysis. It is filed as cell-based.
In assay [5] the test system is MDA-MB-231. As to the kind of experiment: Antiproliferative activity against human MDA-MB-231 cells after 48 hrs by MTT assay. The class given is functional, cell-based. Conditions: MDA-MB-231, 48 h. (Tetrazolium assays rely on reduction of a dye to a coloured formazan, in cell work by metabolically active cells.)

Where a SMILES comes first, the peptide text is derived from it. [ ]: non-standard residue; d: D form. The star is where a group is joined. Hyp = O=C(O)[C@@H]1C[C@@H](O)CN1; Tic = O=C(O)[C@@H]1Cc2ccccc2CN1; Phg = N[C@H](C(=O)O)c1ccccc1; NHOH = ON*

Sequence of 72 kDa type IV collagenase (P08253 whole entry): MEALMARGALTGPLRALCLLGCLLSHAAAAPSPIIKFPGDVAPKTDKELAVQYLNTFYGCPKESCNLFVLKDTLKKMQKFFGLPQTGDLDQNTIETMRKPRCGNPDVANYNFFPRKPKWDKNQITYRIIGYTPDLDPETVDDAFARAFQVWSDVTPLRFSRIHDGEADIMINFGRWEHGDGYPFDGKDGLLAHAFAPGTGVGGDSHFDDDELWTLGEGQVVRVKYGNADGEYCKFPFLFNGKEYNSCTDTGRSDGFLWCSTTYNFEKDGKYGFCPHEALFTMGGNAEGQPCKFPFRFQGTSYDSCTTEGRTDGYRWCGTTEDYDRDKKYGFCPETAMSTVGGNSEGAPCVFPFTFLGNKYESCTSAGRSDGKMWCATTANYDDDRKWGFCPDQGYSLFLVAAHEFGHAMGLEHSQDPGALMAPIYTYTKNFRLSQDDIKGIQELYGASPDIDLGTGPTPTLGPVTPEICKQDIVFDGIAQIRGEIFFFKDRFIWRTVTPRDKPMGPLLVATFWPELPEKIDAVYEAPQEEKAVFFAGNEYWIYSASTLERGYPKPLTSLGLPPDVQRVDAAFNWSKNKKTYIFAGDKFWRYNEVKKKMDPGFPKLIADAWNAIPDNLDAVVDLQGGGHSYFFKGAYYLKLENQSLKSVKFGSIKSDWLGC
Sequence of Aminopeptidase N (Homo sapiens, UniProt P15144) (P15144 whole entry): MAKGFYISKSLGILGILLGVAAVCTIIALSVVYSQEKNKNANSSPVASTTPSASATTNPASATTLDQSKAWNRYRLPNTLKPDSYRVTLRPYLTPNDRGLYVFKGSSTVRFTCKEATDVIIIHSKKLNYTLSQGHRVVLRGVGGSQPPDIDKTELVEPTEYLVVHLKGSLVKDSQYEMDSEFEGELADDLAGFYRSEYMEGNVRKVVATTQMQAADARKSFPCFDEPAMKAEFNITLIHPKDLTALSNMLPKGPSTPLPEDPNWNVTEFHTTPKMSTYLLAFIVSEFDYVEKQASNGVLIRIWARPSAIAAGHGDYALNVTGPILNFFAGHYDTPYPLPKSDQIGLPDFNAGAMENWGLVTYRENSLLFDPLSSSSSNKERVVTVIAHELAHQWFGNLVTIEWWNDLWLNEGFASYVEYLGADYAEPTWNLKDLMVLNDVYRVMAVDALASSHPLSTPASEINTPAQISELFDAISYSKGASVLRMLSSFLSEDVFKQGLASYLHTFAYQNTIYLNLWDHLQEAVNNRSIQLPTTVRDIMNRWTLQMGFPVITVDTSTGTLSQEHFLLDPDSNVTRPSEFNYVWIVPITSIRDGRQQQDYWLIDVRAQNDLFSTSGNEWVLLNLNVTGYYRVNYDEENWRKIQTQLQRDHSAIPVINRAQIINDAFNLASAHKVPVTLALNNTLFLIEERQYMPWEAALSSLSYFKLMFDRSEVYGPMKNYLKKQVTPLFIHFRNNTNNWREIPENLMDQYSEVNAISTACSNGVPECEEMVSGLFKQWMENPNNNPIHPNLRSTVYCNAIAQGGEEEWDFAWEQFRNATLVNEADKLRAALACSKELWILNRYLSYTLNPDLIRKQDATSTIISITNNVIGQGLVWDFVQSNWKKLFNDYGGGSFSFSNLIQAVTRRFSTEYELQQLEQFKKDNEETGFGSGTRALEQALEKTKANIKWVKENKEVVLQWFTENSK

As for `Cl.O=C(CN1C(=O)CC[C@H](NC(=O)[C@@H]2Cc3ccccc3CN2)C1=O)NO`, the IC50 entry in assay [1] was “Not Active”; in assay [2] (read-out: IC50), 20.4 µM.
With `O=C(CCNC(=O)[C@@H]1Cc2ccccc2CN1)NO`, the IC50 was 517 µM in assay [1] (read-out: IC50) and 37.1 µM in assay [2] (read-out: IC50).
Take `O=C(CCCNC(=O)[C@@H]1Cc2ccccc2CN1)NO`: the figures for the IC50 in assay [1] (read-out: IC50) and in assay [2] (read-out: IC50) were 252 µM and 44.5 µM, respectively.
As for `Cl.O=C(N[C@@H](Cc1cc2ccccc2[nH]1)C(=O)NO)[C@@H]1Cc2ccccc2CN1`, the IC50 entry was “Not Active” in assay [1] and 43.4 µM in assay [2] (read-out: IC50).
As for `C[C@H](NC(=O)[C@@H]1Cc2ccccc2CN1)C(=O)NO` (H-[Tic]-Ala-{NHOH}), the IC50 was 463 µM in assay [1] (read-out: IC50) and 83.8 µM in assay [2] (read-out: IC50).
The matching figures for `O=C(CNC(=O)[C@@H]1Cc2ccccc2CN1)NO` (H-[Tic]-Gly-{NHOH}): 249 µM and 21.7 µM.
For `CC[C@H](C)[C@H](NC(=O)[C@@H]1Cc2ccccc2CN1)C(=O)NO.Cl` (H-[Tic]-Ile-{NHOH}), the results for the IC50 in assay [1] (read-out: IC50) and in assay [2] were 672 µM and “Not Active”, respectively.
Regarding `CC(C)C[C@H](NC(=O)[C@H](CC(C)C)NC(=O)[C@@H]1Cc2ccccc2CN1)C(=O)NO.Cl` (H-[Tic]-Leu-Leu-{NHOH}), the results for the IC50 entry in assay [1] and in assay [2] (read-out: IC50) were “Not Active” and 481 µM, respectively.
Take `CC(C)C[C@H](NC(=O)[C@@H]1Cc2ccccc2CN1)C(=O)N[C@@H](Cc1ccccc1)C(=O)NO` (H-[Tic]-Leu-Phe-{NHOH}): the IC50 was 657 µM in assay [1] (read-out: IC50) and 465 µM in assay [2] (read-out: IC50).
For `CC(C)C[C@H](NC(=O)[C@@H]1Cc2ccccc2CN1)C(=O)NO` (H-[Tic]-Leu-{NHOH}), the IC50 in assay [1] (read-out: IC50) was determined as 836 µM; in assay [2] (read-out: IC50), 27.5 µM.
Regarding `CSCC[C@H](NC(=O)[C@@H]1Cc2ccccc2CN1)C(=O)NO` (H-[Tic]-Met-{NHOH}), the IC50 worked out at 166 µM in assay [1] (read-out: IC50) and 8.77 µM in assay [2] (read-out: IC50).
For `CC(C)C[C@H](NC(=O)[C@H](Cc1ccccc1)NC(=O)[C@@H]1Cc2ccccc2CN1)C(=O)NO.Cl` (H-[Tic]-Phe-Leu-{NHOH}), the IC50 entry in assay [1] was “Not Active”; in assay [2] (read-out: IC50) it was 555 µM.
The matching figures for `Cl.O=C(N[C@@H](Cc1ccccc1)C(=O)N[C@@H](Cc1ccccc1)C(=O)NO)[C@@H]1Cc2ccccc2CN1` (H-[Tic]-Phe-Phe-{NHOH}): “Not Active” and 435 µM.
Turning to `O=C(N[C@@H](Cc1ccccc1)C(=O)NO)[C@@H]1Cc2ccccc2CN1` (H-[Tic]-Phe-{NHOH}), the IC50 came to 940 µM in assay [1] (read-out: IC50) and 12.8 µM in assay [2] (read-out: IC50).
For the compound `O=C(NO)[C@@H]1CCCN1C(=O)[C@@H]1Cc2ccccc2CN1` (H-[Tic]-Pro-{NHOH}), the half-maximal inhibitory concentration (IC50) came to 157 µM in assay [1] (read-out: IC50) and 104 µM in assay [2] (read-out: IC50).
The matching figures for `O=C(N[C@@H](CO)C(=O)NO)[C@@H]1Cc2ccccc2CN1` (H-[Tic]-Ser-{NHOH}): 268 µM and 40.2 µM.
The corresponding values for `C[C@@H](O)[C@H](NC(=O)[C@@H]1Cc2ccccc2CN1)C(=O)NO` (H-[Tic]-Thr-{NHOH}) are 201 µM and 46.6 µM.
The matching figures for `O=C(N[C@@H](Cc1ccc(O)cc1)C(=O)NO)[C@@H]1Cc2ccccc2CN1` (H-[Tic]-Tyr-{NHOH}): 540 µM and 9.39 µM.
As to `CC(C)[C@H](NC(=O)[C@@H]1Cc2ccccc2CN1)C(=O)NO` (H-[Tic]-Val-{NHOH}), the IC50 in assay [1] (read-out: IC50) worked out at 307 µM; in assay [2] (read-out: IC50), 36.6 µM.
Turning to `Cl.O=C(NO)[C@@H]1C[C@@H](O)CN1C(=O)[C@@H]1Cc2ccccc2CN1` (H-[Tic]-[Hyp]-{NHOH}), the half-maximal inhibitory concentration (IC50) in assay [1] (read-out: IC50) was 276 µM; in assay [2] it was “Not Active”.
As to `O=C(N[C@H](C(=O)NO)c1ccccc1)[C@@H]1Cc2ccccc2CN1` (H-[Tic]-[Phg]-{NHOH}), the IC50 was 174 µM in assay [3]; 32.7 µM in assay [4]; 591 µM in assay [5]; 393 µM in assay [1] (read-out: IC50); 6.28 µM in assay [2] (read-out: IC50). In addition, the inhibition result in assay [4] was “Dose-dependent effect”.
With `CC(C)C[C@H](NC(=O)[C@@H](O)[C@H](N)Cc1ccccc1)C(=O)O` [UBENIMEX], the IC50 in assay [3] was found to be 142 µM; in assay [5], 753 µM.

By IC50 is commonly meant the concentration needed to halve the response being measured.
